{"source": "paper PMC8539420", "about": "“Discovery of a Potent and Selective JNK3 Inhibitor with Neuroprotective Effect Against Amyloid β-Induced Neurotoxicity in Primary Rat Neurons” (International Journal of Molecular Sciences, 2021)", "key": {"JNK2": {"target": "T1, JNK2 (Homo sapiens, UniProt P45984)", "T1 construct": "purchased Reaction Biology Corp", "test": "Kinase HotSpot assay, JNK2", "type": "biochemical"}, "JNK1": {"target": "T2, JNK1 (Homo sapiens, UniProt P45983)", "T2 construct": "purchased Reaction Biology Corp", "test": "Kinase HotSpot assay, JNK1", "type": "biochemical"}, "GSK3β": {"target": "T3, GSK3β (Homo sapiens, UniProt P49841)", "T3 construct": "purchased Reaction Biology Corp", "test": "Kinase HotSpot assay, GSK3β", "type": "biochemical"}, "caspase-3": {"tested_on": "caspase-3", "test": "Western blot of amyloid-β-induced caspase-3 activation (cleavage) in neurons", "type": "cell-based, rat", "details": "pre-treated 90 minutes, 10 μM amyloid-β1-42 24 hours", "source_text": "(§1) To establish whether the derived selective JNK3 inhibitor actually has the ability to protect neurons from amyloid β-induced neuronal cell death, which is known as the pathogenesis of Alzheimer’s disease, we performed cytotoxicity experiments using Aβ 42, which is known as the most toxic fragment of the amyloid protein. The amyloid-β is known to mainly cause apoptosis during cell death, so it was confirmed whether the derived selective JNK3 inhibitors affect the activation (cleavage) of caspase-3, which are apoptosis-related signaling substances. […] This means that selective JNK3 inhibitors can inhibit apoptosis signaling by amyloid-β in neurons, thereby inhibiting apoptosis. Additionally, we confirmed that JNK activation was induced by amyloid-β in neurons, and the derived selective JNK3 inhibitors could inhibit JNK activation induced by amyloid-β. […] Then, the experiments for JNK3 inhibitors’ effect on the viability of neurons were conducted for five 6-dihydroxy benzimidazoles (35a-35e) by comparing it with previously published resveratrol as a positive control. On the 5th day of rat primary cortical neuron differentiation, each compound was pre-treated for 90 min and then treated with 10 μM Aβ 42 (HIFP-treated) for 24 or 48 h, and cell viability was measured by MTT assay. […]"}, "c-jun": {"tested_on": "c-jun", "test": "Amyloid-β-induced JNK activation (c-jun phosphorylation) in neurons", "type": "cell-based", "details": "rat primary cortical neurons", "source_text": "as §1"}, "ABL1": {"target": "T4, ABL1 (Homo sapiens, UniProt P00519)", "T4 construct": "purchased Reaction Biology Corp. (Kinase HotSpot)", "test": "Kinase panel screening 1 μM", "type": "biochemical", "details": "read-out: enzymatic inhibition ABL1"}, "AKT1": {"target": "T5, AKT1 (Homo sapiens, UniProt P31749)", "T5 construct": "purchased Reaction Biology Corp. (Kinase HotSpot)", "test": "Kinase panel screening 1 μM", "type": "biochemical", "details": "read-out: enzymatic inhibition AKT1"}, "ALK": {"target": "T6, ALK (Homo sapiens, UniProt Q9UM73)", "T6 construct": "purchased Reaction Biology Corp. (Kinase HotSpot)", "test": "Kinase panel screening 1 μM", "type": "biochemical", "details": "read-out: enzymatic inhibition ALK"}, "Aurora A": {"target": "T7, Aurora A (Homo sapiens, UniProt O14965)", "T7 construct": "purchased Reaction Biology Corp. (Kinase HotSpot)", "test": "Kinase panel screening 1 μM", "type": "biochemical", "details": "read-out: enzymatic inhibition Aurora A"}, "BRAF (V599E)": {"target": "T8, BRAF (V599E) (Homo sapiens, UniProt P15056, V600E)", "T8 construct": "purchased Reaction Biology Corp. (Kinase HotSpot)", "T8 sequence (P15056 416-766 V600E limits assumed)": "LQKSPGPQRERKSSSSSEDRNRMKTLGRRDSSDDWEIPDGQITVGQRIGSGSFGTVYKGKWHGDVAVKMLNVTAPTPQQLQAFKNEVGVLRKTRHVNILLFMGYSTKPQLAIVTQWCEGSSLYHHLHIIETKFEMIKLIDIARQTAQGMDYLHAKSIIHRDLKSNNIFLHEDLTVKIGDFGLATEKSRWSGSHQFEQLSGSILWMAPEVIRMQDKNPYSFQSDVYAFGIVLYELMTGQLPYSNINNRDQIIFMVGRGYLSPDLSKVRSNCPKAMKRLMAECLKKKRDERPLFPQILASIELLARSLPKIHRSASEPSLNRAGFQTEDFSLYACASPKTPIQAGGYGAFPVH", "test": "Kinase panel screening 1 μM", "type": "biochemical", "details": "read-out: enzymatic inhibition BRAF (V599E)"}, "c-MET": {"target": "T9, c-MET (Homo sapiens, UniProt P08581)", "T9 construct": "purchased Reaction Biology Corp. (Kinase HotSpot)", "test": "Kinase panel screening 1 μM", "type": "biochemical", "details": "read-out: enzymatic inhibition c-MET"}, "c-Src": {"target": "T10, c-Src (Homo sapiens, UniProt P12931)", "T10 construct": "purchased Reaction Biology Corp. (Kinase HotSpot)", "T10 sequence (P12931 whole entry)": "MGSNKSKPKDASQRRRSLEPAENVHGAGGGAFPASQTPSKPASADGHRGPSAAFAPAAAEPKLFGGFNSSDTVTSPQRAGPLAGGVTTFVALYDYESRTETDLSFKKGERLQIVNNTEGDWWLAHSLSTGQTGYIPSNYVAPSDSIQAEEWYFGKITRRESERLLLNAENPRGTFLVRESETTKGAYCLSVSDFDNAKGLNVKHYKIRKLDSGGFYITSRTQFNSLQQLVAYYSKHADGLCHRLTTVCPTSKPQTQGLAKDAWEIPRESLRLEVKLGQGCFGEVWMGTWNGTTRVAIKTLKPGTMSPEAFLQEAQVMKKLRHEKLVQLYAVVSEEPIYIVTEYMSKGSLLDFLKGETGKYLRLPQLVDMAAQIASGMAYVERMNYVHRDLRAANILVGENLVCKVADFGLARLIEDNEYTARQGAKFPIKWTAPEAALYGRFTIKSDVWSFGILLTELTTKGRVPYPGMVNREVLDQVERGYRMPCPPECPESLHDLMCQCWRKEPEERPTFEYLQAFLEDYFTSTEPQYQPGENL", "test": "Kinase panel screening 1 μM", "type": "biochemical", "details": "read-out: enzymatic inhibition c-Src"}, "CAMKK1": {"target": "T11, CAMKK1 (Homo sapiens, UniProt Q8N5S9)", "T11 construct": "purchased Reaction Biology Corp. (Kinase HotSpot)", "test": "Kinase panel screening 1 μM", "type": "biochemical", "details": "read-out: enzymatic inhibition CAMKK1"}, "FGFR3": {"target": "T12, FGFR3 (Homo sapiens, UniProt P22607)", "T12 construct": "purchased Reaction Biology Corp. (Kinase HotSpot)", "test": "Kinase panel screening 1 μM", "type": "biochemical", "details": "read-out: enzymatic inhibition FGFR3"}, "FYN": {"target": "T13, FYN (Homo sapiens, UniProt P06241)", "T13 construct": "purchased Reaction Biology Corp. (Kinase HotSpot)", "T13 sequence (P06241 whole entry)": "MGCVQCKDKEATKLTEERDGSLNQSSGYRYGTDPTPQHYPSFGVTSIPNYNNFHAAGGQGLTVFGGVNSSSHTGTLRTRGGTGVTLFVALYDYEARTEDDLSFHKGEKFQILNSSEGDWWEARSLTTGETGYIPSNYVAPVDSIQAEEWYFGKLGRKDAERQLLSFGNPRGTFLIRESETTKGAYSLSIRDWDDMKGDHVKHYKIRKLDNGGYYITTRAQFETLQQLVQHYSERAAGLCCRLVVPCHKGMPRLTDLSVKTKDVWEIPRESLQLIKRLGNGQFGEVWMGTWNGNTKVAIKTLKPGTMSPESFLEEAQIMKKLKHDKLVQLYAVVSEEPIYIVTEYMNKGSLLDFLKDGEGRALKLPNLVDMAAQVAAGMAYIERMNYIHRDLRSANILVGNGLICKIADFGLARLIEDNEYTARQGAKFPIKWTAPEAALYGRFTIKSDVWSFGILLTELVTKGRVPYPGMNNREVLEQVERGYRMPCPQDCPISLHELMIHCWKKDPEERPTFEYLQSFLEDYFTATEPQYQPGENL", "test": "Kinase panel screening 1 μM", "type": "biochemical", "details": "read-out: enzymatic inhibition FYN"}, "IGF1R": {"target": "T14, IGF1R (Homo sapiens, UniProt P08069)", "T14 construct": "purchased Reaction Biology Corp. (Kinase HotSpot)", "T14 sequence (P08069 31-1367)": "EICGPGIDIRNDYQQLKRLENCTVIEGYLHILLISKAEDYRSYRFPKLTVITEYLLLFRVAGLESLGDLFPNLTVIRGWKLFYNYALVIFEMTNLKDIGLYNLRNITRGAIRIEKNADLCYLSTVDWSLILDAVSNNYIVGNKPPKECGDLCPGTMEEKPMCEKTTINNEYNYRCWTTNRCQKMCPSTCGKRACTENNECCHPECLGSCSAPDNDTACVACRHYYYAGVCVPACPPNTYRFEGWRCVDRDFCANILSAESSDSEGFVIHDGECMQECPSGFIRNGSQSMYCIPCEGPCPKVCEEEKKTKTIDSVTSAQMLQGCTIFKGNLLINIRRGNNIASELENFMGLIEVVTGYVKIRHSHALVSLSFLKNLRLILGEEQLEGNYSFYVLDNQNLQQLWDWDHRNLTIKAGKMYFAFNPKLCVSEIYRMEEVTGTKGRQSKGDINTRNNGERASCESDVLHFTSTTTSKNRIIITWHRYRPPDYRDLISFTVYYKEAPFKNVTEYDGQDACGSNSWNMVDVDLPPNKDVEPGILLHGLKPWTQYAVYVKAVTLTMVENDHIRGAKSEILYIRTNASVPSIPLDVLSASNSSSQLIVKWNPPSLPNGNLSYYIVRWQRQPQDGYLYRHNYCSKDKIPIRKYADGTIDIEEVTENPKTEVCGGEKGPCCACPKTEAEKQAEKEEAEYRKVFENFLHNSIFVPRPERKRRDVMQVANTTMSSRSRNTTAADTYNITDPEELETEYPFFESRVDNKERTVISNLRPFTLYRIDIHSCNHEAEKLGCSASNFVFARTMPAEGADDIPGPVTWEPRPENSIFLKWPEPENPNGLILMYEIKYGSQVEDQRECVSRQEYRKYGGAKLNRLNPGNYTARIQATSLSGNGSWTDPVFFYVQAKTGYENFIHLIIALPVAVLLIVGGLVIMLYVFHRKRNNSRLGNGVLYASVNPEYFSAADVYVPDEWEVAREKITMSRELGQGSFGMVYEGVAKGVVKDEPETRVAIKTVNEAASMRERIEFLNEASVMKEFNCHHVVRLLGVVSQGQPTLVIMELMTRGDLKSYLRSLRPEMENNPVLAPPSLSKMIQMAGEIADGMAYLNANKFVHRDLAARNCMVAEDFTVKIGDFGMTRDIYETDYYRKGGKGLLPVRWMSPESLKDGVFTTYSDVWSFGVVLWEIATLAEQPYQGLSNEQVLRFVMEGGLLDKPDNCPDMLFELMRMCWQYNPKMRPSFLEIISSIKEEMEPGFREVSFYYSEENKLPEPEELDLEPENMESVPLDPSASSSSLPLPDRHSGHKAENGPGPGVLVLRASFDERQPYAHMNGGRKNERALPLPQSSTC", "test": "Kinase panel screening 1 μM", "type": "biochemical", "details": "read-out: enzymatic inhibition IGF1R"}, "JAK3": {"target": "T15, JAK3 (Homo sapiens, UniProt P52333)", "T15 construct": "purchased Reaction Biology Corp. (Kinase HotSpot)", "test": "Kinase panel screening 1 μM", "type": "biochemical", "details": "read-out: enzymatic inhibition JAK3"}, "KDR/VEGFR2": {"target": "T16, KDR/VEGFR2 (Homo sapiens, UniProt P35968)", "T16 construct": "purchased Reaction Biology Corp. (Kinase HotSpot)", "T16 sequence (P35968 20-1356)": "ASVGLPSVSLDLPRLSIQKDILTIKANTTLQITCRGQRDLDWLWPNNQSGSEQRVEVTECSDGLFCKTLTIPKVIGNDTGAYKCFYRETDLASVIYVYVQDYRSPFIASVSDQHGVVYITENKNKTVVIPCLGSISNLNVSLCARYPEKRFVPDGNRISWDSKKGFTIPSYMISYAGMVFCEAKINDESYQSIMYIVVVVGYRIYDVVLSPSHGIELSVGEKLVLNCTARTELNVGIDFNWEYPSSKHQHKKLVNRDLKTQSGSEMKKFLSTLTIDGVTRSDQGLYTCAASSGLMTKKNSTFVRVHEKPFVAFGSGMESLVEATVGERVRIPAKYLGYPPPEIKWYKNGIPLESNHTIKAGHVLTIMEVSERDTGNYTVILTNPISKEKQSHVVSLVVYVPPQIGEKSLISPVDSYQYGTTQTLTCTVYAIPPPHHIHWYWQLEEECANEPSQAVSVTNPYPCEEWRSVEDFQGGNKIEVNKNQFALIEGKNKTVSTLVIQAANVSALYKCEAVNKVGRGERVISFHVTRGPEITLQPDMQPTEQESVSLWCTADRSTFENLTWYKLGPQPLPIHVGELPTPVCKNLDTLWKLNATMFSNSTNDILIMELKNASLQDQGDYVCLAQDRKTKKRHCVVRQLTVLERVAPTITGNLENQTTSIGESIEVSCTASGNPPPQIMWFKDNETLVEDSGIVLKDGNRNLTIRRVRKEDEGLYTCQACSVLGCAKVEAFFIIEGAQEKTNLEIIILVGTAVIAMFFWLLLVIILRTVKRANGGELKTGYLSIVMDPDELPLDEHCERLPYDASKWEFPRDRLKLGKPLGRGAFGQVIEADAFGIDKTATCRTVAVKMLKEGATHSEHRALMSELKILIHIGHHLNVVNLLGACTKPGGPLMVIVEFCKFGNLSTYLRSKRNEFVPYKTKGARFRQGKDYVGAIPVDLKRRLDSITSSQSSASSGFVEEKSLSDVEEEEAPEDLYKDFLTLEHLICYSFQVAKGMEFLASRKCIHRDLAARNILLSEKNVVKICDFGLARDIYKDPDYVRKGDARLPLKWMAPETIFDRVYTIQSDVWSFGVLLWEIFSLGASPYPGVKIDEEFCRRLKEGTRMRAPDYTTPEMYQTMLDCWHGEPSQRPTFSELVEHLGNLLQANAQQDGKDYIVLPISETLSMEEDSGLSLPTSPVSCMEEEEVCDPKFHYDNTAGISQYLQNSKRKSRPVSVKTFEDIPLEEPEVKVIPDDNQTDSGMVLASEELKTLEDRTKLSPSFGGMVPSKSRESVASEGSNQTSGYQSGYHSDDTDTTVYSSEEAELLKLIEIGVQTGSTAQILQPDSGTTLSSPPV", "test": "Kinase panel screening 1 μM", "type": "biochemical", "details": "read-out: enzymatic inhibition KDR/VEGFR2"}, "LCK": {"target": "T17, LCK (Homo sapiens, UniProt P06239)", "T17 construct": "purchased Reaction Biology Corp. (Kinase HotSpot)", "test": "Kinase panel screening 1 μM", "type": "biochemical", "details": "read-out: enzymatic inhibition LCK"}, "LYN": {"target": "T18, LYN (Homo sapiens, UniProt P07948)", "T18 construct": "purchased Reaction Biology Corp. (Kinase HotSpot)", "test": "Kinase panel screening 1 μM", "type": "biochemical", "details": "read-out: enzymatic inhibition LYN"}, "PDK1/PDHK1": {"target": "T19, PDK1/PDHK1 (Homo sapiens, UniProt Q15118)", "T19 construct": "purchased Reaction Biology Corp. (Kinase HotSpot)", "test": "Kinase panel screening 1 μM", "type": "biochemical", "details": "read-out: enzymatic inhibition PDK1/PDHK1"}, "PLK1": {"target": "T20, PLK1 (Homo sapiens, UniProt P53350)", "T20 construct": "purchased Reaction Biology Corp. (Kinase HotSpot)", "T20 sequence (P53350 whole entry)": "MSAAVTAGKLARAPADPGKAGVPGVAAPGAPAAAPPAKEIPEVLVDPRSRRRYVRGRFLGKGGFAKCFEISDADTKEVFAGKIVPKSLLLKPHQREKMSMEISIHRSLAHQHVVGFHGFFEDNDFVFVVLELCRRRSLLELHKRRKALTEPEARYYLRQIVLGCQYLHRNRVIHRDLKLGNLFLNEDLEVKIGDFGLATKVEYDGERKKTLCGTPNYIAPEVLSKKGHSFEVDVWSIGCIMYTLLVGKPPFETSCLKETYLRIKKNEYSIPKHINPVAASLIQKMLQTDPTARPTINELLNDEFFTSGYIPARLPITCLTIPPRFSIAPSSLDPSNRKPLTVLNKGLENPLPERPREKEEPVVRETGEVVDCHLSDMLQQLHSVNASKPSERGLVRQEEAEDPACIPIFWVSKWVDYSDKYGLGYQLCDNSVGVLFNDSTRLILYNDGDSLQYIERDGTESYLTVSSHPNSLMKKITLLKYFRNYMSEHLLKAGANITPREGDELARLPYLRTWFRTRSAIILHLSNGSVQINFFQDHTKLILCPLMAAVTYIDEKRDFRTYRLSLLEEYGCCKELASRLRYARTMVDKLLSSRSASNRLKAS", "test": "Kinase panel screening 1 μM", "type": "biochemical", "details": "read-out: enzymatic inhibition PLK1"}, "ROS/ROS1": {"target": "T21, ROS/ROS1 (Homo sapiens, UniProt P08922)", "T21 construct": "purchased Reaction Biology Corp. (Kinase HotSpot)", "test": "Kinase panel screening 1 μM", "type": "biochemical", "details": "read-out: enzymatic inhibition ROS/ROS1"}, "SYK": {"target": "T22, SYK (Homo sapiens, UniProt P43405)", "T22 construct": "purchased Reaction Biology Corp. (Kinase HotSpot)", "test": "Kinase panel screening 1 μM", "type": "biochemical", "details": "read-out: enzymatic inhibition SYK"}, "TYRO3/SKY": {"target": "T23, TYRO3/SKY (Homo sapiens, UniProt Q06418)", "T23 construct": "purchased Reaction Biology Corp. (Kinase HotSpot)", "test": "Kinase panel screening 1 μM", "type": "biochemical", "details": "read-out: enzymatic inhibition TYRO3/SKY"}}}
{"compound": "O=C(C1CC1)N1CCC[C@H](Nc2nccc(-n3c(-c4ccc5c(c4)OCCO5)nc4cc(O)c(O)cc43)n2)C1", "note": "[35b, (S)-Cyclopropyl(3-((4-(2-(2,3-dihydrobenzo[b][1,4]dioxin-6-yl)-5,6-dihydroxy-1H-benzo[d]imidazol-1-yl)pyrimidin-2-yl)amino)piperidin-1-yl)methanone]", "values": [{"measurement": "IC50", "setting": "JNK2", "result": 0.898, "unit": "µM"}, {"measurement": "inhibition at 1 µM", "setting": "JNK2; 1 μM, read-out: enzymatic inhibition JNK2", "result": 38, "unit": "%"}, {"measurement": "IC50", "setting": "JNK1", "result": "> 10", "unit": "µM"}, {"measurement": "inhibition at 1 µM", "setting": "JNK1; 1 μM, read-out: enzymatic inhibition JNK1", "result": 9, "unit": "%"}, {"measurement": "selectivity over JNK1", "setting": "JNK1; JNK3 versus JNK1", "result": "> 1000", "unit": "fold"}, {"measurement": "IC50", "setting": "GSK3β", "result": 5.85, "unit": "µM"}, {"measurement": "inhibition at 1 µM", "setting": "GSK3β; 1 μM, read-out: enzymatic inhibition GSK3b", "result": 85.5, "unit": "%"}, {"measurement": "Selectivity/JNK3", "setting": "GSK3β; GSK3β IC50 in comparison with JNK3", "result": ">600", "unit": "fold"}, {"measurement": "activation (cleavage) of caspase-3 by amyloid-β", "setting": "caspase-3", "result": "inhibited the activation of caspase-3"}, {"measurement": "phosphorylation of c-jun induced by amyloid-β", "setting": "c-jun", "result": "inhibit phosphorylation of c-jun"}, {"measurement": "inhibition at 1 µM", "setting": "ABL1", "result": 20.5, "unit": "%"}, {"measurement": "inhibition at 1 µM", "setting": "AKT1", "result": 0, "unit": "%"}, {"measurement": "inhibition at 1 µM", "setting": "ALK", "result": 12.5, "unit": "%"}, {"measurement": "inhibition at 1 µM", "setting": "Aurora A", "result": 25.6, "unit": "%"}, {"measurement": "inhibition at 1 µM", "setting": "BRAF (V599E)", "result": 0, "unit": "%"}, {"measurement": "inhibition at 1 µM", "setting": "c-MET", "result": 0, "unit": "%"}, {"measurement": "inhibition at 1 µM", "setting": "c-Src", "result": 19.3, "unit": "%"}, {"measurement": "inhibition at 1 µM", "setting": "CAMKK1", "result": 0, "unit": "%"}, {"measurement": "inhibition at 1 µM", "setting": "FGFR3", "result": 25.9, "unit": "%"}, {"measurement": "inhibition at 1 µM", "setting": "FYN", "result": 18.3, "unit": "%"}, {"measurement": "inhibition at 1 µM", "setting": "IGF1R", "result": 13.4, "unit": "%"}, {"measurement": "inhibition at 1 µM", "setting": "JAK3", "result": 10.7, "unit": "%"}, {"measurement": "inhibition at 1 µM", "setting": "KDR/VEGFR2", "result": 5.49, "unit": "%"}, {"measurement": "inhibition at 1 µM", "setting": "LCK", "result": 7.63, "unit": "%"}, {"measurement": "inhibition at 1 µM", "setting": "LYN", "result": 10.8, "unit": "%"}, {"measurement": "inhibition at 1 µM", "setting": "PDK1/PDHK1", "result": 0, "unit": "%"}, {"measurement": "inhibition at 1 µM", "setting": "PLK1", "result": 0, "unit": "%"}, {"measurement": "inhibition at 1 µM", "setting": "ROS/ROS1", "result": 0, "unit": "%"}, {"measurement": "inhibition at 1 µM", "setting": "SYK", "result": 1.73, "unit": "%"}, {"measurement": "inhibition at 1 µM", "setting": "TYRO3/SKY", "result": 0, "unit": "%"}]}
